# Key:
# [1] = Evaluation of solubility in organic solvents at 25° C.; format: physicochemical; conditions: tetrahydrofuran, organic solvent or mixture
# Procedure: The compound 2 (2,4-bisoctadecyloxyphenylmethanol) thus obtained was measured for solubility in hexane, cyclohexane, dichloromethane and tetrahydrofuran, respectively, when used as solvents at 25° C.
# 3,4,5-Tris-octadecyloxybenzylalcohol (compound 6) having the following chemical formula was measured for solubility in various solvents at 25° C. similar to as in Example 1.
# [2] = Evaluation of separation efficiency: excision of the compound from the carrier with trifluoroacetic acid/dichloromethane, material consumption by HPLC; format: physicochemical
# Procedure: By stirring the obtained compound 7 (4-iodo-benzoic acid 2,4-bis-octadecyloxybenzyl ester) in solvents listed in Table 2 and for the times shown in Table 2, separation of the compound from the carrier was performed to obtain the reaction rate. In this case, the reaction rate was calculated by assessing the disappearance of material by HPLC.
# Regarding compound 9 (4-iodo-benzoic acid 3,4,5-tris-octadecyloxybenzyl ester) having the following formula 6, which was prepared by condensing 4-iodobenzoic acid to compound 6 (3,4,5-tris-octadecyloxybenzyl alcohol), the separation reaction rate was measured under various conditions similar to in Example 2.
# The above-obtained compound was evaluated for the separation efficiency, similar to Example 3, when it was stirred in dichloromethane containing 1% trifluoroacetic acid for 30 min. As a result, the reaction rate was 100%.
# [3] = 1% trifluoroacetic acid/dichloromethane, 30 min
# [4] = 10% trifluoroacetic acid/dichloromethane, 120 min
# [5] = 50% trifluoroacetic acid/dichloromethane, 120 min
Structure (SMILES),solubility [1],"Reaction rate (material consumption evaluated by HPLC measurement) [2, 3]","Reaction rate (material consumption evaluated by HPLC measurement) [2, 4]","Reaction rate (material consumption evaluated by HPLC measurement) [2, 5]"
"CCCCCCCCCCCCCCCCCCCCCCOc1ccc(CO)c(OCCCCCCCCCCCCCCCCCCCCCC)c1 [2,4-bis-docosanoxyphenyl methanol]",236 mg/mL,–,–,–
"CCCCCCCCCCCCCCCCCCCCCCOc1ccc(COC(=O)c2ccc(I)cc2)c(OCCCCCCCCCCCCCCCCCCCCCC)c1 [4-iodo-benzoic acid 2,4-bis-docosanoxybenzyl ester]",–,100%,–,–
"CCCCCCCCCCCCCCCCCCOc1ccc(COC(=O)c2ccc(I)cc2)c(OCCCCCCCCCCCCCCCCCC)c1 [Compound 7, 4-iodo-benzoic acid 2,4-bis-octadecyloxybenzyl ester]",–,100%,100%,100%
"CCCCCCCCCCCCCCCCCCOc1cc(COC(=O)c2ccc(I)cc2)cc(OCCCCCCCCCCCCCCCCCC)c1OCCCCCCCCCCCCCCCCCC [Compound 9, 4-iodo-benzoic acid 3,4,5-tris-octadecyloxybenzyl ester, reference compound]",–,1< %,12%,100%

# From patent US9284348B2, “Method for synthesis of peptide using a carrier” (JITSUBO Co., Ltd., priority 2005, dated 2016)
